US20100113596A1, “Method for inhibiting liver fibrosis via retinoic acid derivative” (priority 2008, published 2010)

Legend:
collagen (Col 1A2) = experiment: Col 1A2 expression, immunostaining of HSC-T6 cells treated with TGF-β and PL; format: cell-based; details: HSC-T6 cells treated with TGF-β and 30, 150 or 300 nM PL for 4 hours
Method: It has been shown that TGF-β plays a major role in fibrogenesis via the activation of HSC. After the HSC-T6 cells were treated with TGF-β and PL for 4 hours, the cells were subjected to immunostaining and observed under a fluorescence microscopy, as shown in FIG. 4.

Sp1 = Sp1 binding activity (EMSA) in liver of pPK9a-transferred mice fed with ZnSO4 water; format: in vivo, mouse; details: TGF-β1-induced increase
Method: (§1) The eight-week-old BALB/c mice were fed ad libitum standard laboratory chow and water with or without 25 mM ZnSO4 plus 5% sucrose. PL was given intraperitoneally (i.p.) at 30, 150 or 300 μg/kg. The animals were hydrodynamically injected with pPK9a plasmid containing TGF-β1 gene through tail vein and simultaneously fed with ZnSO4(25 mM) and PL as reported. After 48 h, the mice were sacrificed for liver sections.
(§2) […] of plasmid (pPK9a) was dissolved in 3.0 ml Ringer's solution and injected in bolus into the tail vein in a short duration of 5˜7 seconds according to the hydrodynamics-based transfection protocol as described. ZnSO4(25 mM) was dissolved in the drinking water to activate the metallothionein promoter and stimulate TGF-β1 expression.
Since Sp1 is a critical mediator of Col 1A2 expression, we examined the effects of PL on Sp1 binding activity in pPK9a-transferred mice fed with ZnSO4 water.

[1] = test system: TGF-β-induced ROS in HSC-T6 cells; experiment: ROS assay on TGF-β1 and PL-treated HSC-T6 cells (DCFH-DA, flow cytometry); format: cell-based; details: pretreatment with 30˜300 nM PL, TGF-β1 2 ng/ml
Method: (§3) Cells were incubated with 2 ng/ml of TGF-β and PL for 5 hours and analyzed for the oxidation state using 7-dichlorodihydrofluorescein diacetate (DCFH-DA) as a fluorogenic probe and flow cytometer (FACSCalibur). The cells were recovered with 0.01% trypsin and the cellular fluorescence intensity was measured after 30 min incubation of 5 μM DCFHDA. For each analysis, 10,000 events were recorded. Cells were collected in 0.01% trypsin, fixed with 3.7% formaldehyde, permeabilized with 0.02% Triton X-100 in PBS, and stained for a-SMA as described previously. For detecting a-SMA using flow cytometry, cells were treated with 2 ng/ml of TGF-β and PL for 12 hours and immunostained with α-SMA-specific antibody (Santa Cruz) and FITC-conjugated secondary antibody (Molecular Probe). Then the cells were recovered and subjected to flow cytometer, and PL can effectively eliminate radicals as ROS decreased with increasing dosages of PL, as referred to FIG. 1.
ROS intermediates act as signaling molecules of TGF-β in regulation of inflammatory and fibrotic responses. Therefore, first select marker was to determine whether PL could be an antioxidant to block TGF-β-induced ROS in HSC-T6 cells. The intracellular oxidation state of the cell was analyzed by flow cytometry, when ROS were induced by TGF-β1 (2 ng/ml). […]

α-SMA [2] = experiment: α-SMA expression in liver tissue of TGF-β1 transferred fibrotic mice; format: in vivo; details: PL i.p. 30, 150 or 300 μg/kg, compared with the positive controls
Method: as §1, §2
Mouse liver tissues were embedded in an optimal cutting temperature compound (Miles Inc.) and frozen in liquid nitrogen. […]

p-Smad2/3 = experiment: TGF-β-induced p-Smad2/3 and Smad4 translocation into nucleus (Western blot, immunocytostaining); format: cell-based
Text: Translocation of phosphorylated Smad complexes into nucleus is one of the key steps in signal transduction of the liver fibrosis. In activated HSC there is an elevated accumulation of p-Smad2/3 and Smad4 in nucleus. To understand how PL regulates Smad signaling pathway, we first determined the amount of Smad complexes using Western blot.

[3] = test system: [Ca2+]i in TGF-β treated HSC-T6 cells; experiment: Measurement of cytosolic Ca2+ ([Ca2+]i) with fura-2; format: cell-based; details: HSC-T6 cells treated with PL, then TGF-β1 added; compared with positive control
Method: Trypsinized cells (10^6/ml) were recovered 4 h after culture with PL and loaded with 2 μM fura-2/acetoxy methyl (fura-2/AM) for 30 min at 25° C. before stimulating with TGF-β (2ng/ml). Cells were gently shaken for several seconds every 10 min to prevent re-attachment. Cells were washed and resuspended in Ca^2+-containing medium. Fura-2 fluorescence measurements were performed in a water-jacketed cuvette with continuous stirring at 25° C. Fluorescence was monitored with a Hitachi F-2500 fluorescence spectrophotometer by recording excitation signals at), and 380 nm and emission signals at 510 nm at 1-s intervals.
Therefore, we examined whether PL could change the concentration of [Ca^2+]i in TGF-β treated cells. Activation of HSC, the main source of liver collagen, involves the induction of α-SMA, conversing from quiescent to proliferation, and secretion of collagen. After treatment with PL, TGF-β1 was added to HSC-T6 cells and the [Ca^2+]i was measured immediately (FIG. 2). PL decreased the protein levels of α-SMA, which was detected by both flow cytometry and Western blot (FIG. 3). The results imply that a trace amount of PL is sufficient enough to block-[Ca^2+]i and down-regulate α-SMA expression.

α-SMA [4] = experiment: α-SMA expression in HSC-T6 cells (flow cytometry and Western blot); format: cell-based; details: TGF-β and PL, compared with positive control
Method: as §3
Liver tissues were homogenized in RIPA buffer and centrifuged as described; supernatant was taken as a whole-cell lysate. […]
Therefore, we examined whether PL could change the concentration of [Ca^2+]i in TGF-β treated cells. […] After treatment with PL, TGF-β1 was added to HSC-T6 cells and the [Ca^2+]i was measured immediately (FIG. 2). PL decreased the protein levels of α-SMA, which was detected by both flow cytometry and Western blot (FIG. 3). […]

Compound: CC1=C(/C=C/C(C)=C/C=C/C(C)=C/C(=O)O)C(C)(C)CCC1 [PL]
- expression of Col 1A2 (collagen (Col 1A2)): 0.001%
- Sp1 binding activity (Sp1): the increase was reversed by PL treatment
- ROS generated by TGF-β1 [1]: sufficiently eliminate the ROS generated by TGF-β1 in a dose-dependent manner
- α-SMA expression in liver tissue (α-SMA [2]): markedly inhibited
- amount of p-Smad2/3 in the cell nucleus (p-Smad2/3; Western blot): decreased the amount of p-Smad2/3 in the cell nucleus in a dose-dependent manner
- transport of p-Smad2/3 into cell nucleus (p-Smad2/3; immunocytostaining): decreased the transport of p-Smad2/3 into cell nucleus also in a dose-dependent manner
- intracellular calcium [Ca2+]i [3]: significantly reduced
- α-SMA expression (α-SMA [4]): significantly reduced
